Where two headings read alike, the source gives them in different places.
What was measured:
[1] = system: HL-60; test: Anti-proliferative activity, CTG assay, HL-60 cells; assay type: cell-based; details: for inhibition at 10 µM / inhibition at 50 µM: read-out: Inhibition rate HL-60 (%)
Procedure: (§1) RPMI 8226 and HL-7702 cells were cultured in RPMI-1640 medium, Hela cells were cultured in MEM medium, and HL-60 cells were cultured in IMDM medium with 1% penicillin–streptomycin solution and 10% FBS, respectively. The above cells were cultured at 37 °C and 5% CO2. After 24 h of cell spreading, 99 μL of medium per well was prepared and 1 μL of the compound prepared solution was added to the wells. Then, the solution was incubated at 37 °C in a 5% CO2 incubator for 72 h. The cell plates to be tested were left at room temperature and 100 μL of medium per well was discarded. Then, 100 μL of CTG reagent was added, placed in a rapid shaker for 2 min, and left at room temperature away from light for 30 min. The chemiluminescence signal was read by an envision multifunctional enzyme marker. The inhibition ratios and IC50 values were calculated using Prism Graph Pad software.

[2] = system: Hela; test: Anti-proliferative activity, CTG assay, Hela cells; assay type: cell-based; details: 72 h; for inhibition at 10 µM / inhibition at 50 µM: read-out: Inhibition rate Hela (%)
Procedure: as §1

[3] = system: RPMI 8226; test: Anti-proliferative activity, CTG assay, RPMI 8226 cells; assay type: cell-based; details: for IC50: read-out: RPMI8226 (IC50); for inhibition at 10 µM / inhibition at 50 µM: read-out: Inhibition rate RPMI 8226 (%)
Procedure: as §1

[4] = Cytotoxicity toward human normal liver cells HL-7702, CTG assay; assay type: cell-based; details: human, HL-7702 normal liver cells, read-out: 50% cytotoxic concentration (CC50) HL-7702
Procedure: as §1

[5] = system: HL-7702; test: Cytotoxicity toward human normal liver cells HL-7702, CTG assay; assay type: cell-based; details: 72 h, read-out: 50% cytotoxic concentration (CC50) HL-7702
Procedure: as §1

[6] = Homo sapiens, HL-60, 72 h, 10 μM
[7] = Homo sapiens, HL-60, 72 h, 50 μM
[8] = Homo sapiens, RPMI-8226, 72 h, 10 μM
[9] = Homo sapiens, RPMI-8226, 72 h, 50 μM

SMILES	IC50 ([1]; Homo sapiens, HL-60, 72 h) [µM]	melting point [°C]	IC50 ([3]; Homo sapiens, RPMI-8226, 72 h) [µM]	CC50 at 72 h [4] [µM]	inhibition at 10 µM [1, 6] [%]	inhibition at 50 µM [1, 7] [%]	inhibition at 10 µM ([2]; Homo sapiens, HeLa, 10 μM) [%]	inhibition at 50 µM ([2]; Homo sapiens, HeLa, 50 μM) [%]	inhibition at 10 µM [3, 8] [%]	inhibition at 50 µM [3, 9] [%]	other results
COC(=O)C1CCCN1S(=O)(=O)c1ccc(-c2ccc(NC(=O)CN)cc2)cc1 [7a, (2R)-Methyl 1-{4-[4-[4-(2-Aminoacetamido)phenyl]benzenesulfonyl}pyrrolidine-2-carboxylate]	10.8	163.4 to 165.3	4.16	21.1							Inhibition rate HL-60 (%) ([1]; 10 μM, 72 h): 42.45 ± 1.11%; Inhibition rate HL-60 (%) ([1]; 50 μM, 72 h): 97.24 ± 0.02%; Inhibition rate Hela (%) ([2]; 10 μM): 98.11 ± 1.33%; Inhibition rate Hela (%) ([2]; 50 μM): 99.84 ± 0.11%; IC50 [2]: 0.31 µM; Inhibition rate RPMI 8226 (%) ([3]; 10 μM, 72 h): 74.54 ± 1.06%; Inhibition rate RPMI 8226 (%) ([3]; 50 μM, 72 h): 99.78 ± 0.03%
COC(=O)[C@H]1CCCN1S(=O)(=O)c1ccc(-c2ccc(NC(=O)[C@@H](C)N)cc2)cc1 [7b, (2R)-1-(4-{4-[(2R)-2-Aminopropionamido]phenyl}benzenesulfonyl)pyrrolidine-2-carboxylate Methyl Ester]		157.4 to 159.1			4.32 ± 1.35	46.9 ± 1.33	-10.9 ± 2.58	2.44 ± 0.72	-4.81 ± 3.62	41.4 ± 1.25	
COC(=O)[C@H]1CCCN1S(=O)(=O)c1ccc(-c2ccc(NC(=O)[C@H](C)N)cc2)cc1 [7c, Methyl (2R)-1-(4-{4-[(2S)-2-Aminopropionamido]phenyl}benzenesulfonyl)pyrrolidine-2-carboxylate]		155.1 to 158.3			2.78 ± 0.7	49.6 ± 0.82	-13.5 ± 1.33	8.63 ± 2.03	1.42 ± 0.97	49.7 ± 1.35	
COC(=O)[C@H]1CCCN1S(=O)(=O)c1ccc(-c2ccc(NC(=O)CN)nc2)cc1 [7d]		170.2 to 173.5			5.53 ± 1.21	16.9 ± 1.74	-5.24 ± 0.18	41.8 ± 2.62	1.7 ± 0.72	89.7 ± 1.48	
COC(=O)[C@H]1CCCN1S(=O)(=O)c1ccc(-c2ccc(NC(=O)[C@@H](C)N)nc2)cc1 [7e, Methyl (2R)-1-(4-{6-[(2R)-2-Aminopropionamido]pyridin-3-yl}benzenesulfonyl)pyrrolidine-2-carboxylate]		146 to 148.4			-0.89 ± 2.31	17.8 ± 0.86	-11.9 ± 1.69	7.27 ± 0.41	-2.63 ± 2.86	24.4 ± 0.79	
COC(=O)[C@H]1CCCN1S(=O)(=O)c1ccc(-c2ccc(NC(=O)[C@H](C)N)nc2)cc1 [7f, (2R)-1-(4-{6-[(2S)-2-Aminopropionamido]pyridin-3-yl}benzenesulfonyl)pyrrolidine-2-carboxylate Methyl Ester]		146.2 to 148.9			11.1 ± 0.74	28.2 ± 0.98	-2.62 ± 1.36	21.6 ± 6.65	-4.38 ± 0.19	29.4 ± 5.22	
COC(=O)C1CCCN1S(=O)(=O)c1ccc(-c2ccc(NC(=O)CN)cc2)cc1 [13a, (2S)-Methyl 1-{4-[4-[4-(2-Aminoacetamido)phenyl]benzenesulfonyl}pyrrolidine-2-carboxylate]					59 ± 2.12	99.25 ± 0.08	98.74 ± 0.04	99.68 ± 0.17	63.1 ± 1.99	99.89 ± 0.06	IC50 ([1]; 72 h): 7.23 µM; IC50 [2]: 5.19 µM; IC50 ([3]; 72 h): 5.85 µM; CC50 [5]: 27.5 µM
O=C(CCCCCCC(=O)Nc1ccccc1)NO [SAHA, vorinostat, reference compound]				2.03							

Now from value to compound, other results behind:

IC50 ([1]; Homo sapiens, HL-60, 72 h) [µM]	melting point [°C]	SMILES	IC50 ([3]; Homo sapiens, RPMI-8226, 72 h) [µM]	CC50 at 72 h [4] [µM]	inhibition at 10 µM [1, 6] [%]	inhibition at 50 µM [1, 7] [%]	inhibition at 10 µM ([2]; Homo sapiens, HeLa, 10 μM) [%]	inhibition at 50 µM ([2]; Homo sapiens, HeLa, 50 μM) [%]	inhibition at 10 µM [3, 8] [%]	inhibition at 50 µM [3, 9] [%]	other results
10.3	156.4 to 159.1	COC(=O)[C@@H]1CCCN1S(=O)(=O)c1ccc(-c2ccc(NC(=O)[C@@H](C)N)cc2)cc1 [13b, (2S)-1-(4-{4-[(2R)-2-Aminopropionamido]phenyl}benzenesulfonyl)pyrrolidine-2-carboxylate Methyl Ester]	25.2	89.1	43.49 ± 0.21	100.03 ± 0.04	-4.83 ± 3.13	62.27 ± 0.57	0.89 ± 3.52	97.45 ± 0.36	IC50 ([2]; Homo sapiens, HeLa): 20.6 µM
30.9	155.3 to 157.6	COC(=O)[C@@H]1CCCN1S(=O)(=O)c1ccc(-c2ccc(NC(=O)[C@H](C)N)cc2)cc1 [13c, Methyl (2S)-1-(4-{4-[(2S)-2-Aminopropionamido]phenyl}benzenesulfonyl)pyrrolidine-2-carboxylate]	10.7	43.7	20 ± 2.83	96.55 ± 0.22	-3.69 ± 0.34	72.3 ± 1.57	29.6 ± 0.48	82.9 ± 2.04	IC50 ([2]; Homo sapiens, HeLa): 20.6 µM
10.5	170.3 to 172.9	COC(=O)[C@@H]1CCCN1S(=O)(=O)c1ccc(-c2ccc(NC(=O)CN)nc2)cc1 [13d]	32.2		32 ± 3.2	99.93 ± 0.05	-18.4 ± 2.15	33.4 ± 1.97	0.01 ± 0.52	92.27 ± 0.08	IC50 ([2]; Homo sapiens, HeLa): 17.4 µM
	146.2 to 148.9	COC(=O)[C@@H]1CCCN1S(=O)(=O)c1ccc(-c2ccc(NC(=O)[C@@H](C)N)nc2)cc1 [13e, Methyl (2S)-1-(4-{6-[(2R)-2-Aminopropionamido]pyridin-3-yl}benzenesulfonyl)pyrrolidine-2-carboxylate]			17.43 ± 0.16	99.98 ± 0.05	-12.6 ± 1.59	81.6 ± 1.09	5.5 ± 1.12	94.89 ± 0.02	
	146.8 to 149.1	COC(=O)[C@@H]1CCCN1S(=O)(=O)c1ccc(-c2ccc(NC(=O)[C@H](C)N)nc2)cc1 [13f, (2S)-1-(4-{6-[(2S)-2-Aminopropionamido]pyridin-3-yl}benzenesulfonyl)pyrrolidine-2-carboxylate Methyl Ester]			13.9 ± 0.73	99.81 ± 0.12	-6.37 ± 0.44	91.57 ± 0.51	12.4 ± 0.52	89.23 ± 0.24	

— publication PMC9147695, “Design, Synthesis, Bioactivity Evaluation, Crystal Structures, and In Silico Studies of New α-Amino Amide Derivatives as Potential Histone Deacetylase 6 Inhibitors” (Molecules, 2022)
